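Five compound concentrations were applied to cells in 96-well plates for 48 hours; endpoints were derived by simple linear interpolation of the resulting dose-response curve. Here, GI50 denotes the concentration required for 50% inhibition of growth. TGI is the concentration that stops growth completely.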
Tests used:
Assay in all cases: NCI tumour cell line growth inhibition, 48 h
[1] = tested on: HOP-92 NSCLC
[2] = tested on: NCI-H460 lung
[3] = tested on: OVCAR-8 ovarian
[4] = tested on: MDA-MB-231 breast
[5] = tested on: SN12C renal
[6] = tested on: BT-549 breast
[7] = tested on: SK-OV-3 ovarian
[8] = tested on: HT29 colon
[9] = tested on: 786-0 renal
[10] = tested on: MDA-MB-435
[11] = tested on: PC-3 prostate
[12] = tested on: ACHN renal
[13] = tested on: HCT-15 colon
[14] = tested on: UACC-62 melanoma
[15] = tested on: NCI-H522 lung
[16] = tested on: RPMI-8226 leukemia
[17] = tested on: HOP-62 NSCLC
[18] = tested on: COLO 205 colon
[19] = tested on: UO-31 renal
[20] = tested on: MCF7 breast
[21] = tested on: K-562 leukemia
[22] = tested on: OVCAR-5 ovarian
[23] = tested on: UACC-257 melanoma
[24] = tested on: IGROV1 ovarian
[25] = tested on: MOLT-4 leukemia
[26] = tested on: A549 NSCLC
[27] = tested on: CAKI-1 renal
[28] = tested on: CCRF-CEM leukemia
[29] = tested on: NCI-H23 lung
[30] = tested on: TK-10 renal
[31] = tested on: RXF 393 renal
[32] = tested on: HS 578T breast
[33] = tested on: HCC-2998 colon
[34] = tested on: EKVX NSCLC
[35] = tested on: SK-MEL-28 melanoma
[36] = tested on: SNB-75 CNS
[37] = tested on: OVCAR-4 ovarian
[38] = tested on: KM12 colon
[39] = tested on: DU-145 prostate
[40] = tested on: M14 melanoma
[41] = tested on: SW-620 colon
[42] = tested on: HL-60(TB) leukemia
[43] = tested on: HCT-116 colon
[44] = tested on: T-47D breast
[45] = tested on: NCI-H226 lung
[46] = tested on: U251 CNS
[47] = tested on: SF-295 CNS
[48] = tested on: SNB-19 CNS
[49] = tested on: LOX IMVI melanoma
[50] = tested on: SF-268 CNS
[51] = tested on: OVCAR-3 ovarian
[52] = tested on: MALME-3M melanoma
[53] = tested on: A498 renal
[54] = tested on: SK-MEL-5 melanoma
[55] = tested on: SR leukemia
[56] = tested on: SK-MEL-2 melanoma
[57] = tested on: NCI/ADR-RES ovarian
[58] = tested on: SF-539 CNS
[59] = tested on: MDA-N

O=[N+]([O-])c1cc(C(F)(F)F)ccc1Sc1ccc(C(F)(F)F)cc1[N+](=O)[O-]
GI50 [1]: 7.96 µM
TGI [1]: > 100 µM
GI50 [2]: 19 µM
TGI [2]: > 100 µM
GI50 [3]: 6.1 µM
TGI [3]: > 100 µM
GI50 [4]: 5.1 µM
TGI [4]: > 100 µM
GI50 [5]: 7.7 µM
TGI [5]: > 100 µM
GI50 [6]: 7.52 µM
TGI [6]: > 100 µM
GI50 [7]: 7.65 µM
TGI [7]: > 100 µM
GI50 [8]: 3.28 µM
TGI [8]: 9.79 µM
GI50 [9]: > 100 µM
TGI [9]: > 100 µM
GI50 [10]: 3.04 µM
TGI [10]: > 100 µM
GI50 [11]: 61.2 µM
TGI [11]: > 100 µM
GI50 [12]: 49.4 µM
TGI [12]: > 100 µM
GI50 [13]: 6.84 µM
TGI [13]: > 100 µM
GI50 [14]: 5.27 µM
TGI [14]: > 100 µM
GI50 [15]: 7.14 µM
TGI [15]: 82.4 µM
GI50 [16]: 6.69 µM
TGI [16]: > 100 µM
GI50 [17]: > 100 µM
TGI [17]: > 100 µM
GI50 [18]: 41.8 µM
TGI [18]: > 100 µM
GI50 [19]: 34.8 µM
TGI [19]: > 100 µM
GI50 [20]: 9.39 µM
TGI [20]: > 100 µM
GI50 [21]: 3.49 µM
TGI [21]: > 100 µM
GI50 [22]: 43 µM
TGI [22]: > 100 µM
GI50 [23]: 6.65 µM
TGI [23]: > 100 µM
GI50 [24]: 17.1 µM
TGI [24]: > 100 µM
GI50 [25]: 3.92 µM
TGI [25]: > 100 µM
GI50 [26]: 24.9 µM
TGI [26]: > 100 µM
GI50 [27]: 5.67 µM
TGI [27]: > 100 µM
GI50 [28]: 3.47 µM
TGI [28]: > 100 µM
GI50 [29]: 4.62 µM
TGI [29]: > 100 µM
GI50 [30]: 28.3 µM
TGI [30]: > 100 µM
GI50 [31]: 11.4 µM
TGI [31]: > 100 µM
GI50 [32]: 18.6 µM
TGI [32]: > 100 µM
GI50 [33]: 19.7 µM
TGI [33]: > 100 µM
GI50 [34]: 41.7 µM
TGI [34]: > 100 µM
GI50 [35]: 13.2 µM
TGI [35]: > 100 µM
GI50 [36]: > 100 µM
TGI [36]: > 100 µM
GI50 [37]: 4.05 µM
TGI [37]: > 100 µM
GI50 [38]: 5.24 µM
TGI [38]: > 100 µM
GI50 [39]: 10.6 µM
TGI [39]: > 100 µM
GI50 [40]: 7.23 µM
TGI [40]: > 100 µM
GI50 [41]: 3.31 µM
TGI [41]: > 100 µM
GI50 [42]: 3.32 µM
TGI [42]: > 100 µM
GI50 [43]: 3.68 µM
TGI [43]: > 100 µM
GI50 [44]: 29.2 µM
TGI [44]: > 100 µM
GI50 [45]: > 100 µM
TGI [45]: > 100 µM
GI50 [46]: 12.9 µM
TGI [46]: > 100 µM
GI50 [47]: 31.4 µM
TGI [47]: > 100 µM
GI50 [48]: 70.2 µM
TGI [48]: > 100 µM
GI50 [49]: 3.37 µM
TGI [49]: > 100 µM
GI50 [50]: 7.07 µM
TGI [50]: > 100 µM
GI50 [51]: 5.11 µM
TGI [51]: 54.9 µM
GI50 [52]: 17.5 µM
TGI [52]: > 100 µM
GI50 [53]: 7.22 µM
TGI [53]: 30.6 µM
GI50 [54]: 16.7 µM
TGI [54]: > 100 µM
GI50 [55]: 3.65 µM
TGI [55]: > 100 µM
GI50 [56]: 3.32 µM
TGI [56]: 9.96 µM
GI50 [57]: 8.19 µM
TGI [57]: > 100 µM
GI50 [58]: 9.15 µM
TGI [58]: > 100 µM

C/C(=C\c1cc(C(F)(F)F)n(-c2ccc(N)cc2)n1)[C@@H]1C[C@@H]2O[C@]2(C)CCC[C@H](C)[C@H](O)[C@@H](C)C(=O)C(C)(C)[C@@H](O)CC(=O)O1
GI50 [1]: 0.258 µM
TGI [1]: > 11.1 µM
GI50 [2]: 0.00733 µM
TGI [2]: > 5.06 µM
GI50 [3]: 0.0557 µM
TGI [3]: > 11.1 µM
GI50 [4]: 0.137 µM
TGI [4]: > 11.1 µM
GI50 [5]: 0.396 µM
TGI [5]: > 11.1 µM
GI50 [6]: 0.065 µM
TGI [6]: 3.44 µM
GI50 [7]: 0.0575 µM
TGI [7]: > 11.1 µM
GI50 [8]: 0.00621 µM
TGI [8]: 0.339 µM
GI50 [9]: 0.0614 µM
TGI [9]: > 11.1 µM
GI50 [10]: 0.00227 µM
TGI [10]: 0.00567 µM
GI50 [11]: 0.0297 µM
TGI [11]: > 11.1 µM
GI50 [12]: 0.0822 µM
TGI [12]: > 11.1 µM
GI50 [13]: 0.0256 µM
TGI [13]: > 11.1 µM
GI50 [14]: 0.0245 µM
TGI [14]: > 6.85 µM
GI50 [15]: 0.0233 µM
TGI [15]: 0.0839 µM
GI50 [16]: < 0.0106 µM
TGI [16]: > 11.1 µM
GI50 [17]: 0.0762 µM
TGI [17]: > 11.1 µM
GI50 [18]: 0.0162 µM
TGI [18]: 0.582 µM
GI50 [19]: 0.0791 µM
TGI [19]: > 11.1 µM
GI50 [20]: 0.0041 µM
TGI [20]: > 11.1 µM
GI50 [21]: 0.0203 µM
TGI [21]: > 11.1 µM
GI50 [22]: 0.0488 µM
TGI [22]: > 11.1 µM
GI50 [23]: 0.965 µM
TGI [23]: > 11.1 µM
GI50 [24]: 0.068 µM
TGI [24]: > 11.1 µM
GI50 [25]: 0.0515 µM
TGI [25]: > 11.1 µM
GI50 [26]: 0.0489 µM
TGI [26]: > 11.1 µM
GI50 [27]: 0.221 µM
TGI [27]: > 11.1 µM
GI50 [28]: 0.0421 µM
TGI [28]: > 11.1 µM
GI50 [29]: 0.0829 µM
TGI [29]: > 11.1 µM
GI50 [30]: 0.0578 µM
TGI [30]: 7.95 µM
GI50 [31]: 0.032 µM
TGI [31]: 0.379 µM
GI50 [32]: 0.0287 µM
TGI [32]: 0.627 µM
GI50 [33]: 0.0244 µM
TGI [33]: 1.39 µM
GI50 [34]: 0.23 µM
TGI [34]: > 11.1 µM
GI50 [35]: 0.547 µM
TGI [35]: > 11.1 µM
GI50 [36]: 0.0078 µM
TGI [36]: 0.189 µM
GI50 [37]: 2.19 µM
TGI [37]: > 11.1 µM
GI50 [38]: 0.00522 µM
TGI [38]: > 11.1 µM
GI50 [39]: 0.0372 µM
TGI [39]: 0.265 µM
GI50 [40]: 0.0166 µM
TGI [40]: 0.096 µM
GI50 [41]: 0.00554 µM
TGI [41]: > 11.1 µM
GI50 [42]: 0.0168 µM
TGI [42]: 2.68 µM
GI50 [43]: 0.00775 µM
TGI [43]: > 5.49 µM
GI50 [44]: 0.0542 µM
TGI [44]: > 11.1 µM
GI50 [45]: 0.956 µM
TGI [45]: > 11.1 µM
GI50 [46]: 0.0477 µM
TGI [46]: > 11.1 µM
GI50 [47]: 0.0369 µM
TGI [47]: 1.39 µM
GI50 [48]: 0.0711 µM
TGI [48]: > 11.1 µM
GI50 [49]: 0.0312 µM
TGI [49]: > 11.1 µM
GI50 [50]: 0.0502 µM
TGI [50]: > 11.1 µM
GI50 [51]: 0.0182 µM
TGI [51]: 1.75 µM
GI50 [52]: 0.089 µM
TGI [52]: > 11.1 µM
GI50 [53]: 0.0438 µM
GI50 [54]: 0.0235 µM
TGI [54]: > 3.71 µM
GI50 [55]: 0.0225 µM
TGI [55]: 2.18 µM
GI50 [56]: 0.0295 µM
TGI [56]: 0.382 µM
GI50 [57]: 0.164 µM
TGI [57]: > 8.45 µM
GI50 [58]: 0.025 µM
TGI [58]: 0.336 µM

CN(C)c1ccc(/C=C2\N=C(N/N=C/c3ccccc3O)NC2=O)cc1
TGI [1]: 59.7 µM
TGI [5]: > 100 µM
TGI [6]: > 100 µM
TGI [8]: > 100 µM
TGI [10]: > 100 µM
TGI [59]: > 100 µM
TGI [16]: > 100 µM
TGI [17]: 53 µM
TGI [18]: > 100 µM
TGI [22]: > 100 µM
TGI [30]: 59.4 µM
TGI [31]: 55.9 µM
TGI [32]: > 100 µM
TGI [33]: > 100 µM
TGI [35]: 62.7 µM
TGI [36]: 89.7 µM
TGI [39]: > 100 µM
TGI [45]: 41.1 µM
TGI [48]: > 100 µM
TGI [50]: > 100 µM
TGI [53]: 61.7 µM
